The record followed here is ChEMBL document CHEMBL1141065, “Inhibition of mandelate racemase by the substrate-intermediate-product analogue 1,1-diphenyl-1-hydroxymethylphosphonate” (Bioorg Med Chem Lett, 2005).

The target in experiment [1] is T1, Mandelate racemase (Pseudomonas putida, UniProt P11444).
T1 sequence (P11444 whole entry): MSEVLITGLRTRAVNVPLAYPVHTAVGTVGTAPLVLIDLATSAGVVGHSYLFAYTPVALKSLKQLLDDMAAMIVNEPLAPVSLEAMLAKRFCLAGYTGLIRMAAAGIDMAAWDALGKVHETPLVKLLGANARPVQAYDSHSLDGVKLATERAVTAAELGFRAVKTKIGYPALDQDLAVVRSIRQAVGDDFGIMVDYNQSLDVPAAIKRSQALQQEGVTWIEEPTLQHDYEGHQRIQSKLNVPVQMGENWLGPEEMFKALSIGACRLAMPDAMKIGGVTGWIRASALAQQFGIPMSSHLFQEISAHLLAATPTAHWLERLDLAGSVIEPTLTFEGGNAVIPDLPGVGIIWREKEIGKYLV
In words: Inhibitory activity against Mandelate racemase at pH 8.7 at 25 degree C.

For experiment [2], the target named is T1, Mandelate racemase. In words: Inhibitory activity against Mandelate racemase at pH 6.3 at 25 degree C.
For experiment [3], the target named is T1, Mandelate racemase. In words: Inhibitory activity against Mandelate racemase at pH 7.5 at 25 degree C.

For orientation: Ki means a measure of affinity in units of concentration, obtained from inhibition or displacement. A low value points to tighter binding.

For `O=P(O)(O)C(O)(c1ccccc1)c1ccccc1`, the results for the inhibitory constant (Ki) in experiment [1], in experiment [2] and in experiment [3] were 6.93 mM, 5.91 mM and 1.41 mM, respectively.
